# Experimental data taken from ChEMBL document CHEMBL1201862, “PubChem BioAssay data set” (2004).
# Calls of active or inactive are those of the source. For most assays here, no stated cut-off is given here; in the data, actives have a measured EC50 and inactives only a lower limit.
# Assays:
# [1] = Luminescence Cell-Based Dose Confirmation HTS to Identify Inhibitors of Platelet Dense Granule Release. [Related pubchem assays: 1663 (Primary HTS), 1678 (Summary of Project)]; assay type: functional
# [2] = target: Luciferin 4-monooxygenase (Photinus pyralis, UniProt P08659); assay: inhibition of purified Photinus pyralis luciferase – biochemical, luminescence, dose response (AID 1891)
# [3] = tested on: H9c2; assay: cells; assay type: functional, cell-based; conditions: Rattus norvegicus, H9c2, Myocardium;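 further: confirmatory concentration-response retest of ultra-high-throughput screening hits for modulation of myocardial damage; cell death induced by hydrogen peroxide oxidative stress; compound pretreatment for 60 min then peroxide exposure for 2 h; potency is for protecting the cells against peroxide damage rather than for killing them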
# [4] = viability of uninfected HEp-2 cells – cell-based, HTS, cytotoxicity control for RSV inhibitor project, dose response (AID 2410); assay type: functional; conditions: human respiratory syncytial virus
# [5] = target: T1, Calpain-2 catalytic subunit (Sus scrofa, UniProt P43367); assay: m-calpain protease blockers, concentration series – biochemical, fluorogenic peptide substrate, dose response (AID 1420); assay type: functional
# T1 sequence (P43367 whole entry): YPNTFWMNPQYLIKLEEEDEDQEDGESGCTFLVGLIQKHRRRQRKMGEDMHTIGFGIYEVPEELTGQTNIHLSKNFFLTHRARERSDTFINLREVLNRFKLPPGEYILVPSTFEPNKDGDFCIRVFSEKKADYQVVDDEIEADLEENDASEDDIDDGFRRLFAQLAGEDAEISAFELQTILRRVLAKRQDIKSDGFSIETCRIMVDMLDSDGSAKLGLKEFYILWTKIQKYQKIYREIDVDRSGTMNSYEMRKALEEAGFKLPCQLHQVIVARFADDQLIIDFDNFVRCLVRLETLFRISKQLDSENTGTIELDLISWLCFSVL
# [6] = target: T2, Rac GTPase-activating protein 1 (Homo sapiens, UniProt Q9H0H5); assay: blockers of MgcRacGAP-driven Rac1 GTP hydrolysis – biochemical, ADP Hunter fluorescence, primary and confirmatory, confirmation (AID 624330); assay type: functional
# T2 sequence (Q9H0H5 whole entry): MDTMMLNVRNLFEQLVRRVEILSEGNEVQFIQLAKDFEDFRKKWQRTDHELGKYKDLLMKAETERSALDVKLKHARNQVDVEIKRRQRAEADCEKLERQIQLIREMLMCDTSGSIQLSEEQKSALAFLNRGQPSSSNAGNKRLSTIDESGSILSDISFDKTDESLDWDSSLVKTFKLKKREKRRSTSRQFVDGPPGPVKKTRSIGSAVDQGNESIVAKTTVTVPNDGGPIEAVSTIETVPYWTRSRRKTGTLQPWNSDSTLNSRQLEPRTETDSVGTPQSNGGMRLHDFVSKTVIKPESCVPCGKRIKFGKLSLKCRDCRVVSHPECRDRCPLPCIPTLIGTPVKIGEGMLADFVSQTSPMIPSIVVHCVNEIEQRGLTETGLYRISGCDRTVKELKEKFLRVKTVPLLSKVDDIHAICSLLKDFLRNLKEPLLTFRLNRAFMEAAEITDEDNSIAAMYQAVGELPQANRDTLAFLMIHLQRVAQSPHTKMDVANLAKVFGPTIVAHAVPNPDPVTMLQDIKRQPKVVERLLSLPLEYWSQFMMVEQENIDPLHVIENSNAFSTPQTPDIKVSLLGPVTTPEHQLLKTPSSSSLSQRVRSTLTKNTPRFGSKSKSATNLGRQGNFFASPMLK
# [7] = Trypanosoma cruzi growth suppression in host cells – NIH3T3 host cells, beta-gal luminescence, confirmation (AID 2044); assay type: functional, cell-based;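 further: intracellular parasites grown in NIH/3T3 mouse fibroblasts as host cells; luminescent beta-galactosidase reporter signal from transgenic T. cruzi replicating inside host cells; inhibitors lower the luminescence signal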
# [8] = NIH3T3 cell viability loss – ATP luminescence, mouse fibroblasts, counter-screen, dose response (AID 2010); assay type: functional, cell-based;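 further: cells exposed to compound for about 90 hours before reading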
# [9] = Luminescence Cell-Based Dose Response HTS to Identify Activators of Luciferase Translation or Activity in H4 […] Cells. [Related pubchem assays: 1829 (Project Summary), 1814 (Primary HTS)]; assay type: functional
# [10] = tested on: H4; assay: Luminescence Cell-Based Dose Response HTS to Identify Activators of 5'UTR Stem-Loop Driven Prion Protein mRNA Translation in H4 Neuroglioblastoma Cells. [Related pubchem assays: 1829 (Project Summary), 1814 (Primary HTS)]; assay type: functional; conditions: Homo sapiens
# [11] = Luminescence Cell-Based Dose Retest to Confirm Inhibitors of Cancer Stem Cells. [Related pubchem assays (depositor defined):AID2717, AID2721]; assay type: functional; conditions: Homo sapiens
# [12] = Luminescence Cell-Based Dose Response HTS to Identify Inhibitors of 5'UTR Stem-Loop Driven Prion Protein mRNA Translation in H4 Neuroglioblastoma Cells. [Related pubchem assays: 1827 (Project Summary), 1813 (Primary HTS)]; assay type: functional
# [13] = target: T3, Corticotropin-releasing factor receptor 2/Corticotropin-releasing factor-binding protein (Homo sapiens, UniProt P24387+Q13324); assay: Dose Response confirmation of uHTS hits for small molecule antagonists of the CRF-binding protein and CRF-R2 receptor complex.; assay type: functional; conditions: read-out: IC50_Mean
# T3 sequence (Q13324 whole entry): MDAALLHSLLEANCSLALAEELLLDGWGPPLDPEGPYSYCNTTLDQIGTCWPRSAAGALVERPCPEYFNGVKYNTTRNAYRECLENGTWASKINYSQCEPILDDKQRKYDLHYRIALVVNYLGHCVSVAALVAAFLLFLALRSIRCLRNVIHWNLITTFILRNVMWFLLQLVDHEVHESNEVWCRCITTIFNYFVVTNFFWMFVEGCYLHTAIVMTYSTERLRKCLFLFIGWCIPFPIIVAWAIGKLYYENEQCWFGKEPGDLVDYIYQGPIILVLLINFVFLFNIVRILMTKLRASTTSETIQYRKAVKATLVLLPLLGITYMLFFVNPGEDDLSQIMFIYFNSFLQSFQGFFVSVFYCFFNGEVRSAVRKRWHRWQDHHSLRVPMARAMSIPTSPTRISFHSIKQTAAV
# T3 sequence (P24387 whole entry): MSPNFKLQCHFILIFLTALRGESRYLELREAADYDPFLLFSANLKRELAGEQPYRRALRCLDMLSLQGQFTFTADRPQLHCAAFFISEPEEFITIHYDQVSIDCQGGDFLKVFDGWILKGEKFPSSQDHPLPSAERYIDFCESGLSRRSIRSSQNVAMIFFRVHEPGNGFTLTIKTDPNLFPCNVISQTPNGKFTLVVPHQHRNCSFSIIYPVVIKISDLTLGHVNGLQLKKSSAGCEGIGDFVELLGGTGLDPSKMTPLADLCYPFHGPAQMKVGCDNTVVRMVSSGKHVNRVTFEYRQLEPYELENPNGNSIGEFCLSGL
# [14] = target: T3, Corticotropin-releasing factor receptor 2/Corticotropin-releasing factor-binding protein; assay: activators of CRF receptor 2 with binding protein – uHTS hits, confirmation (AID 602473); assay type: functional; conditions: read-out: EC50_Mean
# 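Wherever AC50 is given: cells exposed to compound for roughly 70 hours or longer before luminescence read.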
# Chain of Luciferin 4-monooxygenase (P08659 whole entry): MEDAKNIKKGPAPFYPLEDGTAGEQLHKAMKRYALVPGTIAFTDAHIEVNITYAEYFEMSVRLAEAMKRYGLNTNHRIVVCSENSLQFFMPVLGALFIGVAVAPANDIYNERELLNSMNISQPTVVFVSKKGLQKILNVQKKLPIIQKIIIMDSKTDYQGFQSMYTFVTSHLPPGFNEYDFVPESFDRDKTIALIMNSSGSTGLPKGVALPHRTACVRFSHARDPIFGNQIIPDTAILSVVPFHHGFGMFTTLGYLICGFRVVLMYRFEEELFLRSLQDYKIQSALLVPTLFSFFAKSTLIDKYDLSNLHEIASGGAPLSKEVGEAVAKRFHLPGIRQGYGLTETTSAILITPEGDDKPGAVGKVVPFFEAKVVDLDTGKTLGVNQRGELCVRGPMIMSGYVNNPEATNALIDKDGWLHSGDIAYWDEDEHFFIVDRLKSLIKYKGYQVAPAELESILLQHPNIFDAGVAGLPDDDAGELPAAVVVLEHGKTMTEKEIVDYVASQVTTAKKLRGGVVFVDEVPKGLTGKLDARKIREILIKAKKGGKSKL
smiles,measurement,setting,value
CSc1ccc(/C=N/NC(=O)c2cc(O)cc(O)c2)cc1,EC50,[1],10 µM (active)
same,EC50,[2],1.22 µM (active)
O=c1oc(Nc2cccc(Cl)c2)nc2ccccc12,EC50,[1],16 µM (active)
same,EC50,[2],37.7 µM (active)
Cc1ccc(-c2nnc(NCc3nc4ccccc4[nH]3)c3ccccc23)cc1S(=O)(=O)N1CCOCC1,IC50,[3],> 79 µM (inactive)
O=C(COc1ccc(Br)cc1CO)Nc1ccccc1F,CC50,[4],35.2 µM (active)
COc1ccc(OC)c(Nc2nc(NCc3ccco3)c3ccccc3n2)c1,EC50,[1],49 µM (active)
same,EC50,[2],18.7 µM (active)
Cn1c(=O)n(C)c2cc([N+](=O)[O-])c(N3CCN(CCO)CC3)cc21,IC50,[5],7.45 µM (not active)
Cc1ccc(OCCn2cc(/C=C(\C#N)C(=O)NCC3CCCO3)c3ccccc32)cc1 (stereo not drawn),CC50,[4],38.7 µM (active)
Cc1ccc(C2(CCNCc3ccc(N(C)C)cc3)CCOC(C(C)C)C2)cc1 (stereo not drawn),CC50,[4],12.6 µM (active)
Cc1cc2nnc(SC(C)C)n2c2ccccc12,CC50,[4],> 50 µM (active)
CCN1CCN(CCOc2ccccc2OCc2ccccc2)CC1,IC50,[6],94.5 µM (active)
COc1cc(C(=O)N2CCN(c3ccc([N+](=O)[O-])cc3)CC2)ccc1OCc1c(C)noc1C,EC50,[1],> 112 µM (not active)
same,EC50,[2],40.2 µM (active)
COc1ccccc1C(=O)Nc1ccc(S(=O)(=O)N(C)c2ccccc2)cc1,CC50,[4],29.4 µM (active)
COc1ccccc1N(Cc1ccccc1)S(=O)(=O)c1cccc(C(=O)Nc2ccc(C)cn2)c1,EC50,[7],1.58 µM (active)
same,EC50,[8],> 30 µM (not active)
same,CC50,[4],11 µM (active)
S=C(NCC1CC1)N/N=C/c1ccccc1Cl,EC50,[1],> 112 µM (not active)
same,EC50,[2],> 112 µM (not active)
CC(=O)Nc1ccccc1C(=O)C(=O)Nc1cccc(C(=O)NCC2CCCO2)c1 (stereo not drawn),IC50,[5],7.39 µM (not active)
CCOc1ccc(CC(=O)Nc2c(C(N)=O)oc3ccc(Br)cc23)cc1OCC,IC50,[3],> 79 µM (inactive)
CCCCn1c(N)c(N(CC(C)C)C(=O)c2ccc(Br)s2)c(=O)[nH]c1=O,EC50,[1],> 112 µM (not active)
same,EC50,[2],> 112 µM (not active)
Cc1ccc(-c2nc3ccccc3[nH]2)s1,EC50,[1],7.89 µM (active)
same,EC50,[2],0.951 µM (active)
[2H]c1c([2H])c([2H])c(-c2nc(N3CCCCCC3)sc2C(=O)c2ccccc2)c([2H])c1[2H],CC50,[4],41.6 µM (active)
O=C(O)c1ccc(-c2noc(-c3ccccc3F)n2)cc1,EC50,[1],1.6 µM (active)
same,EC50,[2],1.45 µM (active)
CCOC(=O)N1CCc2c(sc(NC(=O)CN3CCOCC3)c2C(=O)Nc2ccccc2)C1,IC50,[3],22.8 µM (active)
COc1ccc(/C=C/C2=NC(=C\N(C)C)/C(=O)O2)cc1,EC50,[9],11.2 µM (active)
same,EC50,[10],8.24 µM (active)
O=C(CSc1ccc(-c2ccccc2)nn1)N1CCCCC1,EC50,[9],25.4 µM (active)
same,EC50,[10],65.2 µM (active)
Cc1cccc(OCCNc2ccc([N+](=O)[O-])cn2)c1,IC50,[5],> 50 µM (not active)
N#CCCN(C(=O)COC(=O)CCc1nc(O)c2ccccc2n1)c1ccc(F)cc1,IC50,[3],> 79 µM (inactive)
CCCCC(=O)Nc1nc(C)c(-c2csc(Nc3cc(Cl)ccc3OC)n2)s1,CC50,[4],26.5 µM (active)
COc1cc(/C=N\NC(=O)CNC(=O)C(c2ccccc2)c2ccccc2)ccc1O,IC50,[6],54.6 µM (active)
COc1ccc(NC(=O)CC2C(=O)N(C)C(=S)N2CCc2ccccc2)cc1 (stereo not drawn),CC50,[4],18 µM (active)
CCN1CCN(c2nc(O)c3c(n2)CCCC3)CC1,IC50,[3],> 79 µM (inactive)
CC(C)CCNc1nc(-c2ccco2)c2c(c1C#N)CCCC2,AC50,[11],10.4 µM (active)
Oc1ccc(/C=C/c2ccc3ccccc3n2)cc1,IC50,[6],28 µM (active)
same,EC50,[1],0.235 µM (active)
same,EC50,[2],0.161 µM (active)
same,CC50,[4],19.7 µM (active)
Fc1ccc(-c2ccc(-c3nn4c(-c5ccco5)nnc4s3)o2)cc1,IC50,[3],36.1 µM (inactive)
C/C(=N\O)[C@H]1CC[C@H]2[C@@H]3CC[C@H]4C/C(=N\O)CC[C@]4(C)[C@H]3C(C)(O)C[C@]12C (stereo partly drawn),IC50,[3],> 79 µM (inactive)
COc1cc([C@H]2OC[C@H]3[C@@H]2CO[C@H]3c2ccc(O)c(OC)c2)ccc1O [PINORESINOL],IC50,[6],171 µM (active)
CCc1ccc(NC(=O)Nc2ccsc2C(=O)OC)cc1,EC50,[1],2.06 µM (active)
same,EC50,[2],0.701 µM (active)
CN(C)S(=O)(=O)n1cc(/C=C(\NC(=O)c2ccccc2F)C(=O)NCCN2CCOCC2)c2ccccc21,IC50,[3],> 79 µM (inactive)
O=c1c2ccccc2nc(-c2ccc(Cl)c(Cl)c2)n1O,IC50,[3],> 79 µM (inactive)
COc1cc(/C=N/NC(=O)c2ccoc2C)ccc1O,IC50,[6],27.3 µM (active)
COc1cc(/C=C/C(=O)OCC(=O)N2CCC(Cc3ccccc3)CC2)ccc1O,IC50,[6],47.7 µM (active)
COc1ccc(C(=O)Nc2ccccc2C(=O)N/N=C/c2ccncc2)cc1OC,EC50,[1],0.564 µM (active)
same,EC50,[2],0.609 µM (active)
CCN(CC)c1nc(SCCOC(=O)Nc2ccccc2)nc(N(CC)CC)n1,AC50,[11],2.79 µM (active)
same,EC50,[7],1.73 µM (active)
same,EC50,[8],> 60 µM (not active)
CCc1nnc(S)n1/N=C/c1c(C)nn(-c2ccccc2)c1Cl,EC50,[12],19 µM (active)
O=C(CCN1Cc2ccccc2C1)c1ccc2c(c1)OCCO2,AC50,[11],11.5 µM (active)
Cc1ccccc1-n1c(C)nnc1SCc1nc2ccccc2s1,EC50,[9],33.1 µM (active)
COc1ccc(OC)c(NC(=O)c2sc3ncnc(N4CCN(c5ccccn5)CC4)c3c2C)c1,IC50,[3],> 79 µM (inactive)
O=C(CN1CCN(C2CCCCC2)CC1)Nc1ccccc1-c1ccccc1,IC50,[6],78.1 µM (active)
CC(CCc1ccco1)NC(=O)CCc1nnc2ccc(NCc3ccccc3)nn12 (stereo not drawn),IC50,[13],> 47.1 µM (inactive)
same,EC50,[1],> 112 µM (not active)
same,EC50,[14],> 53 µM (inactive)
same,EC50,[2],> 112 µM (not active)
O=C(/C=C/c1c(F)cccc1Cl)Nc1nc2ccccc2[nH]1,EC50,[9],0.14 µM (inconclusive)
same,EC50,[10],10.4 µM (active)
COc1ccc(CC(=O)NCC(=O)N/N=C/c2cc(Br)ccc2OC)cc1,IC50,[3],34.7 µM (inactive)
O=C(CN1C(=O)C2CC=CCC2C1=O)Nc1nc(-c2ccc(F)c(F)c2)cs1 (stereo not drawn),IC50,[3],> 79 µM (inactive)
